Results on 56 compounds are retold here after patent publication US7427615B2, “3-substituted-4-pyrimidone derivatives” (Mitsubishi Pharma Corporation, priority 2001, dated 2008).

One may read the IC50 as the concentration at which inhibition is half-maximal. A high value points to lower potency.

For the assay, the target named is T1, bovine cerebral TPK1 (Bos taurus, UniProt A0A3Q1MT31).
T1 construct: from tissue; host or cells: bovine brain (cerebrum)
The experiment in a line: Inhibitory activity against P-GS1 phosphorylation by bovine cerebral TPK1. It counts as biochemical. The settings on record: 41.7 μM [γ-32P]ATP, 25° C., 2 hours, pH 6.5. The protocol:
Test Example: Inhibitory activity of the medicament of the present invention against P-GS1 phosphorylation by bovine cerebral TPK1
A mixture containing 100 mM MES-sodium hydroxide (pH 6.5), 1 mM magnesium acetate, 0.5 mM EGTA, 5 mM β-mercaptoethanol, 0.02% Tween 20, 10% glycerol, 12 μg/ml P-GS1, 41.7 μM [Υ-^32P] ATP (68 kBq/ml), bovine cerebral TPK1 and a compound shown in Table (a final mixture contained 1.7% DMSO deriving from a solution of a test compound prepared in the presence of 10% DMSO) was used as a reaction system. The phosphorylation was started by adding ATP, and the reaction was conducted at 25° C. for 2 hours, and then stopped by adding 21% perchloric acid on ice cooling. The reaction mixture was centrifuged at 12,000 rpm for 5 minutes and adsorbed on P81 paper (Whatmann), and then the paper was washed four times with 75 mM phosphoric acid, three times with water and once with acetone. The paper was dried, and the residual radioactivity was measured using a liquid scintillation counter.

T1 sequence (A0A3Q1MT31 1-419): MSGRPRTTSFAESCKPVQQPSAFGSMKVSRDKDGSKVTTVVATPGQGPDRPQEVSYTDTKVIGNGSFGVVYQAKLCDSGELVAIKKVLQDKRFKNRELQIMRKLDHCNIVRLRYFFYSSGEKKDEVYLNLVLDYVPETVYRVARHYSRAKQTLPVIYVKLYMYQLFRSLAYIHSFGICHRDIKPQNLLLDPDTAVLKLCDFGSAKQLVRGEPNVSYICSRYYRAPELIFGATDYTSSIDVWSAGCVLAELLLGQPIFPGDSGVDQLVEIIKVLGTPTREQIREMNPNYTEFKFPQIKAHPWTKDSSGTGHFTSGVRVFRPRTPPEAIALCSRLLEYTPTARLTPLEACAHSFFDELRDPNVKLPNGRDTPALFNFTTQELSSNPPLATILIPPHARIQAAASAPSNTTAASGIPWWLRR

`Cn1c(N2CCOC(c3cccc(N4CCCC4)c3)C2)nc(-c2ccncc2)cc1=O` (single isomer, unassigned) [B288] came in with an IC50 of 40 nM.
Then `Cn1c(N2CCOC(c3cccc(N4CCCC4)c3)C2)nc(-c2ccncc2)cc1=O` (single isomer, unassigned) [B289], with 33 nM.
With `Cn1c(N2CCOC(C(=O)c3ccccc3)C2)nc(-c2ccncc2)cc1=O` (single isomer, unassigned) [C389] the figure was 34 nM; with `Cn1c(N2CCOC(C(=O)c3ccccc3)C2)nc(-c2ccncc2)cc1=O` (single isomer, unassigned) [C390], 1 nM.
Then `Cn1c(NCC(=O)c2ccccc2)nc(-c2ccncc2)cc1=O` [A001, 3-methyl-2-(2-oxo-2-phenylethylamino)-6-pyridin-4-yl-3H-pyrimidin-4-one], with 8.9 nM.
In the case of `Cn1c(NCC(=O)c2ccccc2F)nc(-c2ccncc2)cc1=O` [A002], the IC50 was found to be 27 nM.
With `Cn1c(NCC(=O)c2cccc(Cl)c2)nc(-c2ccncc2)cc1=O` [A006] the figure was 13 nM; with `Cn1c(N2CCOC(CCc3ccccc3)C2)nc(-c2ccncc2)cc1=O` (centres unmarked) [B010], 6 nM; with `Cn1c(N2CCO[C@@H](c3ccccc3F)C2)nc(-c2ccncc2)cc1=O` [B037], 4.8 nM.
For `Cn1c(N2CCO[C@@H](c3ccccc3Cl)C2)nc(-c2ccncc2)cc1=O` [B046], half-maximal inhibition (IC50) was put at 8.3 nM.
For the compound `Cn1c(N2CCOC(c3cccc(Br)c3)C2)nc(-c2ccncc2)cc1=O` (centres unmarked) [B051], it took 1.9 nM to reach half-maximal inhibition (IC50).
Then `Cn1c(N2CCOC(c3ccccc3Br)C2)nc(-c2ccncc2)cc1=O` (centres unmarked) [B054], with 4 nM.
With `Cc1ccccc1C1CN(c2nc(-c3ccncc3)cc(=O)n2C)CCO1` (centres unmarked) [B063] the figure was 6 nM; with `COc1ccc([C@H]2CN(c3nc(-c4ccncc4)cc(=O)n3C)CCO2)cc1` [B079, (S)-2-[2-(4-Methoxyphenyl)morpholin-4-yl]-3-methyl-6-pyridin-4-yl-3H-pyrimidin-4-one], 3.3 nM; with `COc1ccccc1C1CN(c2nc(-c3ccncc3)cc(=O)n2C)CCO1` (centres unmarked) [B084], 1.1 nM.
Then `COc1ccccc1[C@H]1CN(c2nc(-c3ccncc3)cc(=O)n2C)CCO1` [B085], with 1.4 nM; and `CCOc1ccccc1C1CN(c2nc(-c3ccncc3)cc(=O)n2C)CCO1` (centres unmarked) [B087], with 5 nM; and `COc1cc(F)ccc1C1CN(c2nc(-c3ccncc3)cc(=O)n2C)CCO1` (centres unmarked) [B091], with 1.2 nM.
Consider `Cn1c(N2CCOC(c3cc(F)c(F)cc3Cl)C2)nc(-c2ccncc2)cc1=O` (centres unmarked) [B097], for which the IC50 is 2.8 nM.
With `Cn1c(N2CCOC(c3ccc(F)cc3Br)C2)nc(-c2ccncc2)cc1=O` (centres unmarked) [B100] the figure was 4.7 nM.
With `COc1cccc(OC)c1[C@H]1CN(c2nc(-c3ccncc3)cc(=O)n2C)CCO1` [B103] the figure was 0.36 nM; with `Cn1c(N2CCO[C@@H](c3c(Cl)cccc3Cl)C2)nc(-c2ccncc2)cc1=O` [B106], 1.4 nM.
With `Cn1c(N2CCO[C@H](c3c(Cl)cccc3Cl)C2)nc(-c2ccncc2)cc1=O` [B107] the figure was 50 nM.
In the case of `Cn1c(N2CCO[C@@H](c3c(F)cccc3F)C2)nc(-c2ccncc2)cc1=O` [B110], the IC50 turned out to be 8.2 nM.
Then `CC(C)Oc1ccc(C2CN(c3nc(-c4ccncc4)cc(=O)n3C)CCO2)cc1` (centres unmarked) [B122], with 63 nM; and `Cn1c(N2CCOC(c3ccc(OCC4CC4)cc3)C2)nc(-c2ccncc2)cc1=O` (centres unmarked) [B128], with 30 nM.
In turn, `Cn1c(N2CCOC(c3cccc(S(C)(=O)=O)c3)C2)nc(-c2ccncc2)cc1=O` (centres unmarked) [B130] showed an IC50 of 52.9 nM.
With `Cn1c(N2CCOC(c3ccc(N4CCCC4)cc3)C2)nc(-c2ccncc2)cc1=O` (centres unmarked) [B140] the figure was 8 nM; with `Cn1c(N2CCOC(c3ccc(F)cc3Cl)C2)nc(-c2ccncc2)cc1=O` (centres unmarked) [B253], 15 nM.
Compound `COc1ccc(-c2cccnc2)cc1C1CN(c2nc(-c3ccncc3)cc(=O)n2C)CCO1` (centres unmarked) [B256] showed an IC50 of 1.1 nM.
With `Cn1c(N2CCOC(c3ccc(F)c(F)c3)C2)nc(-c2ccncc2)cc1=O` (centres unmarked) [B257] the figure was 67 nM; with `COc1cc(OC(C)C)ccc1C1CN(c2nc(-c3ccncc3)cc(=O)n2C)CCO1` (centres unmarked) [B261], 1.3 nM.
Then `CCn1c(N2CCOC(c3c(OC)cccc3OC)C2)nc(-c2ccncc2)cc1=O` (centres unmarked) [B263], with 1.2 nM; and `COc1cc(F)ccc1[C@@H]1CN(c2nc(-c3ccncc3)cc(=O)n2C)CCO1` [B285], with 8.9 nM; and `COc1ccc(-c2cccc(CN3CCCC3)c2)cc1C1CN(c2nc(-c3ccncc3)cc(=O)n2C)CCO1` (centres unmarked) [B287], with 0.57 nM.
Regarding `COc1cc(-c2ccccc2F)ccc1C1CN(c2nc(-c3ccncc3)cc(=O)n2C)CCO1` (centres unmarked) [B290], the IC50 was 2 nM.
As to `Cn1c(N2CCCC(C(=O)c3ccccc3)C2)nc(-c2ccncc2)cc1=O` (centres unmarked) [C001, 2-(3-Benzoylpiperidin-1-yl)-3-methyl-6-pyridin-4-yl-3H-pyrimidin-4-one], the midpoint of inhibition, the IC50, lay at 2.1 nM.
`Cn1c(N2CCCC(C(=O)Nc3ccccc3)C2)nc(-c2ccncc2)cc1=O` (centres unmarked) [C067, 1-(1-Methyl-6-oxo-4-pyridin-4-yl-1,6-dihydro-pyrimidine-2-yl)-piperidine-3-carboxanilide]: the IC50 was found to be 72 nM.
With `Cn1c(N2CCOC(C(=O)c3ccccc3)C2)nc(-c2ccncc2)cc1=O` (centres unmarked) [C101, 2-(2-benzoylmorpholin-4-yl)-3-methyl-6-pyridin-4-yl-3H-pyrimidin-4-one] the figure was 3.5 nM; with `Cn1c(N2CCC(C(=O)c3ccccc3)CC2)nc(-c2ccncc2)cc1=O` [D001, 2-(4-benzoylpiperidin-1-yl)-3-methyl-6-pyridin-4-yl-3H-pyrimidin-4-one], 9 nM; with `Cn1c(N2CCC(C(=O)c3ccccc3F)CC2)nc(-c2ccncc2)cc1=O` [D002], 23 nM.
With `Cn1c(N2CCC(C(=O)c3ccc(F)cc3)CC2)nc(-c2ccncc2)cc1=O` [D004] the figure was 15 nM; with `COc1ccc(C(=O)C2CCN(c3nc(-c4ccncc4)cc(=O)n3C)CC2)cc1` [D007], 18 nM.
Then `Cn1c(N2CCC(C(=O)c3ccc(Cl)cc3)CC2)nc(-c2ccncc2)cc1=O` [D009, 2-[4-(4-Chlorobenzoyl)piperidin-1-yl]-3-methyl-6-pyridin-4-yl-3H-pyrimidin-4-one], with 6 nM; and `COc1cccc(C(=O)C2CCN(c3nc(-c4ccncc4)cc(=O)n3C)CC2)c1OC` [D011], with 11 nM; and `Cn1c(N2CCC(C(=O)c3ccc(F)cc3F)CC2)nc(-c2ccncc2)cc1=O` [D012], with 19 nM.
Take `Cn1c(N2CCC(C(=O)c3ccc(F)c(F)c3)CC2)nc(-c2ccncc2)cc1=O` [D013]: the concentration for half-maximal inhibition (IC50) is 19 nM.
Then `Cn1c(N2CCC(C(=O)c3cccs3)CC2)nc(-c2ccncc2)cc1=O` [D014], with 20 nM.
Then `Cn1c(N2CCC(C(=O)n3ccc4ccccc43)CC2)nc(-c2ccncc2)cc1=O` [D017], with 10 nM.
Regarding `Cn1c(N2CCC(C(=O)N3CCCc4ccccc43)CC2)nc(-c2ccncc2)cc1=O` [D018], the IC50 turned out to be 4.3 nM.
In the case of `Cn1c(N2CCC(C(=O)N3CCc4ccccc43)CC2)nc(-c2ccncc2)cc1=O` [D019], it took 8.1 nM to reach half-maximal inhibition (IC50).
Compound `Cn1c(N2CCC(C(=O)c3ccc(Cl)s3)CC2)nc(-c2ccncc2)cc1=O` [D021] displayed an IC50 of 11 nM.
Then `Cn1c(N2CCC(C(=O)c3ccc(-c4ccccc4)cc3)CC2)nc(-c2ccncc2)cc1=O` [D022], with 7.8 nM.
With `Cn1c(N2CCC(C(=O)c3ccccc3-c3ccccc3)CC2)nc(-c2ccncc2)cc1=O` [D023] the figure was 13 nM; with `Cn1c(N2CCC(C(=O)c3cccc4ccccc34)CC2)nc(-c2ccncc2)cc1=O` [D024], 19 nM.
The compound `COc1cc(F)ccc1C(=O)C1CCN(c2nc(-c3ccncc3)cc(=O)n2C)CC1` [D025] registered an IC50 of 16 nM.
